US20260199223A1, “USE OF AN AUREOBASIDIUM PULLULANS EXTRACT ALONE OR IN COMBINATION WITH A C-GLYCOSIDE AS A COSMETIC ACTIVE PRINCIPLE” (L'OREAL, priority 2022, published 2026)

Tests used:
Type in all cases: cell-based, human
[1] = tested on: Collagen IV; assay: Expression of collagen IV in NHEK, in situ immunofluorescence; details: 72 hours
Procedure: (§1) The effects of the Aureobasidium pullulans extract and C-β-D-xylopyranoside-2-hydroxypropane (C-Xyloside, Pro-Xylane™) and a combination thereof were evaluated on normal human epidermal keratinocytes (NHEK) by analysing the expression of markers by in situ immunofluorescence labelling and image analysis: • expression of the differentiation markers: Transglutaminase K (TGK), filaggrin and involucrin, • expression of the tight junction proteins: claudin-1, zonula occludens-1 (ZO-1) and occludin,
The compounds were tested at a non-cytotoxic concentration. • Normal human keratinocytes: NHEK, Bioalternatives reference K341 used at third passage. • Culture conditions: 37° C., 5% CO2 • Culture medium: Keratinocyte SFM (serum free medium) supplemented with Epidermal Growth Factor Pituitary extract • Test medium: Keratinocyte SFM (serum free medium) […]
(§2) The labelling was quantified by measuring the fluorescence intensity and normalizing the fluorescence intensity relative to the total number of cells (Digital data integration with Developer Toolbox 1.5 software, GE Healthcare).

[2] = tested on: occludin; assay: Expression of occludin in NHEK, in situ immunofluorescence; details: 144 hours
Procedure: as §1
(§3) The compounds were tested at a non-cytotoxic concentration. • Normal human keratinocytes: NHEK, Bioalternatives reference K341 used at third passage. • Culture conditions: 37° C., 5% CO2 • Culture medium: Keratinocyte SFM (serum free medium) supplemented with Epidermal Growth Factor Pituitary extract • Test medium: Keratinocyte SFM (serum free medium)
The keratinocytes were seeded in 96-well plates and cultured in culture medium for 24 hours. […]
as §2

[3] = tested on: filaggrin; assay: Expression of filaggrin in NHEK, in situ immunofluorescence; details: 72 hours
Procedure: as §1, §3
The keratinocytes were seeded in a 96-well plate and grown in culture medium for 192 hours with renewal of the culture medium after 24 and 96 hours. The medium was then replaced with a test medium containing or not containing (control) the test compounds, the combination or the reference compound and the cells were incubated for 72 hours.
(§4) The cells were rinsed with PBS solution, fixed and permeabilized. The cells were then labelled using a specific primary antibody (Table 13).
(§5) Image acquisition (five photos/well) was performed using an INCell Analyzer™ 2200 (GE Healthcare, x20 objective).
as §2

[4] = tested on: zonula occludens-1 (ZO-1); assay: Expression of ZO-1 in NHEK, in situ immunofluorescence; details: 72 hours
Procedure: as §1, §3
(§6) The keratinocytes were seeded in 96-well plates and cultured in culture medium for 24 hours. The medium was then replaced with a test medium containing or not containing (control) the test compounds, the combination or the reference compound and the cells were incubated for 72 hours.
as §4, §5, §2

[5] = tested on: claudin-1; assay: Expression of claudin-1 in NHEK, in situ immunofluorescence; details: 72 hours
Procedure: as §1, §3, §6, §4, §5, §2

[6] = tested on: involucrin; assay: Expression of involucrin in NHEK, in situ immunofluorescence; details: 144 hours
Procedure: as §1, §3
The keratinocytes were seeded in 96-well plates and cultured in culture medium for 24 hours. The medium was then replaced with a test medium containing or not containing (control) the test compounds, the combination or the reference compound and the cells were incubated for 144 hours with a repeat treatment after 72 hours.
as §4, §5, §2

[7] = tested on: Transglutaminase K (TGK); assay: Expression of TGK in NHEK, in situ immunofluorescence; details: 72 hours
Procedure: as §1, §3, §6, §4, §5, §2

[8] = tested on: TGM1; assay: Quantitative PCR analysis of TGM1 expression in reconstructed epidermis; details: QPCR, 250 μm, control = 100
Procedure: (§7) Human keratinocytes were seeded onto inserts and then incubated at 37° C. in an atmosphere containing 5% CO2. Between the second and ninth day of incubation, the culture medium was changed every two days. […] On day 17, the reconstructed skins were then recovered and processed in different ways depending on the analysis test performed, namely: • for immunohistofluorescence analysis, the reconstructed skins were recovered, fixed, dehydrated and embedded in paraffin. 4 μm sections were then produced using a microtome (Leica). • for a QPCR test, the reconstructed skins were recovered and the RNAs were extracted in their entirety. For this analysis, the RNAs were reverse-transcribed and the complementary DNAs obtained were analysed via a quantitative PCR technique. The mRNAs of the RPS18, GAPDH and GUSB proteins, the reference internal controls, were analysed in parallel with the mRNAs of ZO-1, CK10, involucrin and TGM1. Quantification of fluorescence incorporation (SYBR Green) was measured continuously using a LightCycler LC480 thermal cycler (Roche) and Ct analysis (relative quantification) was performed using the LC480 software (Roche).

[9] = tested on: involucrin; assay: Quantitative PCR analysis of involucrin expression in reconstructed epidermis; details: QPCR, 250 μm, control = 100
Procedure: as §7

[10] = tested on: claudin-1; assay: Claudin-1 synthesis by immunohistofluorescence in reconstructed epidermis
Procedure: (§8) Human keratinocytes were seeded onto inserts and then incubated at 37° C. in an atmosphere containing 5% CO2. Between the second and ninth day of incubation, the culture medium was changed every two days. […] On day 17, the reconstructed skins were then recovered and processed in different ways depending on the analysis test performed, namely: • for immunohistofluorescence analysis, the reconstructed skins were recovered, fixed, dehydrated and embedded in paraffin. 4 μm sections were then produced using a microtome (Leica). • for a QPCR test, the reconstructed skins were recovered and the RNAs were extracted in their entirety. The following primary antibodies were used for this test: • Mouse anti-filaggrin monoclonal antibody • Rabbit anti-loricrin polyclonal antibody • Mouse anti-claudin-1 monoclonal antibody The secondary antibodies used were as follows: • Alexa Fluor® 488-coupled rabbit anti-IgG antibody • Alexa Fluor® 488-coupled mouse anti-IgG antibody Visualization was performed using an IX 70 microscope (Olympus) coupled to an image analysis system (NIS-Elements software, Nikon). The content of the various markers synthesized was proportional to the intensity of the green fluorescence present on the reconstructed epidermis samples. Quantification was performed by means of an image analysis script in Python language. The results are expressed in arbitrary units (AU).

[11] = tested on: CK10; assay: Quantitative PCR analysis of CK10 expression in reconstructed epidermis; details: QPCR, 250 μm, control = 100
Procedure: as §7

[12] = tested on: ZO-1; assay: Quantitative PCR analysis of ZO-1 expression in reconstructed epidermis; details: QPCR, 250 μm, control = 100
Procedure: as §7

[13] = tested on: loricrin; assay: Loricrin synthesis by immunohistofluorescence in reconstructed epidermis; details: day 9 to day 17, 250 μm
Procedure: as §8

[14] = tested on: filaggrin; assay: Filaggrin synthesis by immunohistofluorescence in reconstructed epidermis
Procedure: as §8

TGF-β: positive control for expression of the marker Collagen IV, R&D Systems ref. 240-B
Expression of Collagen IV, Integration fluo ([1]; 10 ng/ml): 176 % of control

[Ca+2].[Cl-].[Cl-] [CaCl2]
Expression of occludin, Integration fluo ([2]; 1.5 mM): 296 % of control | Expression of Filaggrin, Integration fluo ([3]; 1.5 mM): 159 % of control | Expression of ZO-1, Integration fluo ([4]; 1.5 mM): 119 % of control | Expression of Claudin-1, Integration fluo ([5]; 1.5 mM): 200 % of control | Expression of Involucrin, Integration fluo ([6]; 1.5 mM): 126 % of control | Expression of TGK, Integration fluo ([7]; 1.5 mM): 903 % of control

CC(O)C[C@@H]1OC[C@@H](O)[C@H](O)[C@H]1O (stereo partly drawn) [C-β-D-xylopyranoside-2-hydroxypropane]
Expression of occludin, Integration fluo ([2]; 0.3%): 78 % of control | Expression of Filaggrin, Integration fluo ([3]; 0.1%): 114 % of control | Expression of Filaggrin, Integration fluo ([3]; 0.3%): 127 % of control | Expression of ZO-1, Integration fluo ([4]; 0.03%): 111 % of control | Expression of ZO-1, Integration fluo ([4]; 0.1%): 124 % of control | Expression of ZO-1, Integration fluo ([4]; 0.3%): 127 % of control | Expression of Claudin-1, Integration fluo ([5]; 0.03%): 184 % of control | Expression of Claudin-1, Integration fluo ([5]; 0.1%): 204 % of control | Expression of Involucrin, Integration fluo ([6]; 0.1%): 109 % of control | Expression of Involucrin, Integration fluo ([6]; 0.3%): 110 % of control | Expression of Collagen IV, Integration fluo ([1]; 0.3%): 120 % of control | Expression of TGK, Integration fluo ([7]; 0.03%): 124 % of control | Expression of TGK, Integration fluo ([7]; 0.1%): 158 % of control | Expression of TGK, Integration fluo ([7]; 0.3%): 235 % of control

NC(=O)c1cccnc1 [Niacinamide]
Expression of TGMI (%) [8]: 86% | Expression of involucrin (%) [9]: 78% | Efficacy/control (%), claudin-1 ([10]; 250 μm): +10% | Synthesis of claudin-1 ([10]; day 9 to day 17, 250 μm): 266 × 10^3 AU | Expression of CK10 (%) [11]: 100% | Expression of ZO-1 (%) [12]: 91% | Synthesis of loricin [13]: 214 × 10^3 AU | Efficacy/control (%), filaggrin ([14]; 250 μm): +42% | Synthesis of filaggrin ([14]; day 9 to day 17, 250 μm): 941 × 10^3 AU
